Measured values published in patent US12059420B2 (BRISTOL-MYERS SQUIBB COMPANY, priority 2018, dated 2024).

These compounds were tested against T1, human IDO1 (Homo sapiens, UniProt P14902) (assay: IDO inhibition assay in HEK293 cells stably expressing human IDO1 (kynurenine production, Ehrlich reagent, absorbance 490 nm)). Settings: 20 hours incubation with compound, 500 nM reference standard = 100% inhibition, read-out: IDO1 HEK Human IC50.
T1 construct: expressed in transfected cells
Type: cell-based
Method in brief: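 HEK293 clones stably expressing human IDO1 (10,000 cells/well, phenol red-free RPMI, 10% FBS) were treated with compound for 20 hours at 37° C. After 0.2% TCA and 30 min at 50° C., kynurenine was read with Ehrlich reagent at 490 nm. IC50 was normalised to DMSO (0%) and 500 nM reference standard (100%).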

T1 sequence (P14902 whole entry): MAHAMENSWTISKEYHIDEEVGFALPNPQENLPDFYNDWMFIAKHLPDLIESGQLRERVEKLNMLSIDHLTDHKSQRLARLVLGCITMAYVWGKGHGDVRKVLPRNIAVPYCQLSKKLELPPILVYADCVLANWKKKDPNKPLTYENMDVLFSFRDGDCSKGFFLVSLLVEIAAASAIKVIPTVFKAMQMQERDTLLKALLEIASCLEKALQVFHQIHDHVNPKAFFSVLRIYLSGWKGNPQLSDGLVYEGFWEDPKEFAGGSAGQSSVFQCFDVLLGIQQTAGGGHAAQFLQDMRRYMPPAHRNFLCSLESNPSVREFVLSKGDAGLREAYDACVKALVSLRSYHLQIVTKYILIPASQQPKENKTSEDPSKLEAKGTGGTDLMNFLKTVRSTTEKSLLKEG

Structure (SMILES)	IC50 [nM]
Cc1ccc(Nc2cc(-c3ccccc3-c3nnn[nH]3)nc(N(Cc3ccccc3)CC(C)C)c2)nc1 [Example 142, 6-(2-(1H-tetrazol-5-yl)phenyl)-N2-benzyl-N2-isobutyl-N4-(5-methylpyridin-2-yl)pyridine-2,4-diamine]	36.8
CC(C)CN(Cc1ccccc1)c1cc(Nc2ccc(C(N)=O)cc2)cc(-c2ccccc2-c2nnn[nH]2)n1 [Example 144, 4-((2-(2-(1H-tetrazol-5-yl)phenyl)-6-(benzyl(isobutyl)amino)pyridin-4-yl)amino)benzamide]	665
Cc1ccnc(Nc2cc(-c3ccccc3-c3nnn[nH]3)nc(N(Cc3ccccc3)CC(C)C)c2)n1 [Example 145, 6-(2-(1H-tetrazol-5-yl)phenyl)-N2-benzyl-N2-isobutyl-N4-(4-methylpyrimidin-2-yl)pyridine-2,4-diamine]	73.6
Cc1ccc(Nc2cc(-c3ccccc3-c3nnn[nH]3)nc(N(Cc3ccccc3)CC(C)C)c2)c(F)c1 [Example 147, 6-(2-(1H-tetrazol-5-yl)phenyl)-N2-benzyl-N4-(2-fluoro-4-methylphenyl)-N2-isobutylpyridine-2,4-diamine]	7.3
Cc1ccc(Nc2cc(-c3ccccc3-c3nnn[nH]3)nc(N(Cc3ccccc3)CC(C)C)c2)cc1 [Example 148, 6-(2-(1H-tetrazol-5-yl)phenyl)-N2-benzyl-N2-isobutyl-N4-(p-tolyl)pyridine-2,4-diamine]	4.8
CCCc1cnc(Nc2cc(-c3ccccc3-c3nnn[nH]3)nc(N(Cc3ccccc3)CC(C)C)c2)nc1 [Example 149, 6-(2-(1H-tetrazol-5-yl)phenyl)-N2-benzyl-N2-isobutyl-N4-(5-propylpyrimidin-2-yl)pyridine-2,4-diamine]	17.6
CC(C)CN(Cc1ccccc1)c1cc(Nc2ccc(C#N)cn2)cc(-c2ccccc2-c2nnn[nH]2)n1 [Example 150, 6-((2-(2-(1H-tetrazol-5-yl)phenyl)-6-(benzyl(isobutyl)amino)pyridin-4-yl)amino)nicotinonitrile]	23.9
CC(C)CN(Cc1ccccc1)c1cc(Nc2nc(C(F)(F)F)ccc2F)cc(-c2ccccc2-c2nnn[nH]2)n1 [Example 151, 6-(2-(1H-tetrazol-5-yl)phenyl)-N2-benzyl-N4-(3-fluoro-6-(trifluoromethyl)pyridin-2-yl)-N2-isobutylpyridine-2,4-diamine]	279
Cc1cc(F)cnc1Nc1cc(-c2ccccc2-c2nnn[nH]2)nc(N(Cc2ccccc2)CC(C)C)c1 [Example 152, 6-(2-(1H-tetrazol-5-yl)phenyl)-N2-benzyl-N4-(5-fluoro-3-methylpyridin-2-yl)-N2-isobutylpyridine-2,4-diamine]	129
CC(C)CN(Cc1ccccc1)c1cc(Nc2ccc3ccccc3n2)cc(-c2ccccc2-c2nnn[nH]2)n1 [Example 154, 6-(2-(1H-tetrazol-5-yl)phenyl)-N2-benzyl-N2-isobutyl-N4-(quinolin-2-yl)pyridine-2,4-diamine]	54
CC(C)CN(Cc1ccccc1)c1cc(Nc2ccnc3ccnn23)cc(-c2ccccc2-c2nnn[nH]2)n1 [Example 155, 6-(2-(1H-tetrazol-5-yl)phenyl)-N2-benzyl-N2-isobutyl-N4-(pyrazolo[1,5-a]pyrimidin-7-yl)pyridine-2,4-diamine]	131
CC(C)CN(Cc1ccccc1)c1cc(Nc2nc3ccc(F)cc3s2)cc(-c2ccccc2-c2nnn[nH]2)n1 [Example 156, 6-(2-(1H-tetrazol-5-yl)phenyl)-N2-benzyl-N4-(6-fluorobenzo[d]thiazol-2-yl)-N2-isobutylpyridine-2,4-diamine]	115
Cc1ccc(Nc2cc(-c3ccccc3-c3nnn[nH]3)nc(N(Cc3ccccc3)CC(C)C)c2)nn1 [Example 157, 6-(2-(1H-tetrazol-5-yl)phenyl)-N2-benzyl-N2-isobutyl-N4-(6-methylpyridazin-3-yl)pyridine-2,4-diamine]	540
CC(C)CN(Cc1ccccc1)c1cc(Nc2ncc(C(C)C)cn2)cc(-c2ccccc2-c2nnn[nH]2)n1 [Example 158, 6-(2-(1H-tetrazol-5-yl)phenyl)-N2-benzyl-N2-isobutyl-N4-(5-isopropylpyrimidin-2-yl)pyridine-2,4-diamine]	444
CC(C)CN(Cc1ccccc1)c1cc(Nc2ncc(C(N)=O)cc2F)cc(-c2ccccc2-c2nnn[nH]2)n1 [Example 159, 6-((2-(2-(1H-tetrazol-5-yl)phenyl)-6-(benzyl(isobutyl)amino)pyridin-4-yl)amino)-5-fluoronicotinamide]	275
CC(C)CN(Cc1ccccc1)c1cc(Nc2cccnc2F)cc(-c2ccccc2-c2nnn[nH]2)n1 [Example 160, 6-(2-(1H-tetrazol-5-yl)phenyl)-N2-benzyl-N4-(2-fluoropyridin-3-yl)-N2-isobutylpyridine-2,4-diamine]	23.4
Cc1nc2ccc(Nc3cc(-c4ccccc4-c4nnn[nH]4)nc(N(Cc4ccccc4)CC(C)C)c3)cc2s1 [Example 161, 6-(2-(1H-tetrazol-5-yl)phenyl)-N2-benzyl-N2-isobutyl-N4-(2-methylbenzo[d]thiazol-6-yl)pyridine-2,4-diamine]	2.1

Structure (SMILES)	IC50 [nM]
CCc1cnc(Nc2cc(-c3ccccc3-c3nnn[nH]3)nc(N(Cc3ccccc3)CC(C)C)c2)nc1 [Example 162, 6-(2-(1H-tetrazol-5-yl)phenyl)-N2-benzyl-N4-(5-ethylpyrimidin-2-yl)-N2-isobutylpyridine-2,4-diamine]	26.2
CC(C)CN(Cc1ccccc1)c1cc(Nc2ncccc2C#N)cc(-c2ccccc2-c2nnn[nH]2)n1 [Example 163, 2-((2-(2-(1H-tetrazol-5-yl)phenyl)-6-(benzyl(isobutyl)amino)pyridin-4-yl)amino)nicotinonitrile]	736
CC(C)CN(Cc1ccccc1)c1cc(Nc2cnc(Cl)nc2)cc(-c2ccccc2-c2nnn[nH]2)n1 [Example 164, 6-(2-(1H-tetrazol-5-yl)phenyl)-N2-benzyl-N4-(2-chloropyrimidin-5-yl)-N2-isobutylpyridine-2,4-diamine]	7.9
CC(C)CN(Cc1ccccc1)c1cc(Nc2ccc3nncn3n2)cc(-c2ccccc2-c2nnn[nH]2)n1 [Example 165, 6-(2-(1H-tetrazol-5-yl)phenyl)-N4-([1,2,4]triazolo[4,3-b]pyridazin-6-yl)-N2-benzyl-N2-isobutylpyridine-2,4-diamine]	1120
CC(C)CN(Cc1ccccc1)c1cc(Nc2ccc(C(=O)O)cc2F)cc(-c2ccccc2-c2nnn[nH]2)n1 [Example 166, 4-((2-(2-(1H-tetrazol-5-yl)phenyl)-6-(benzyl(isobutyl)amino)pyridin-4-yl)amino)-3-fluorobenzoic acid]	4050
Cc1nccnc1Nc1cc(-c2ccccc2-c2nnn[nH]2)nc(N(Cc2ccccc2)CC(C)C)c1 [Example 167, 6-(2-(1H-tetrazol-5-yl)phenyl)-N2-benzyl-N2-isobutyl-N4-(3-methylpyrazin-2-yl)pyridine-2,4-diamine]	206
Cc1cccnc1Nc1cc(-c2ccccc2-c2nnn[nH]2)nc(N(Cc2ccccc2)CC(C)C)c1 [Example 168, 6-(2-(1H-tetrazol-5-yl)phenyl)-N2-benzyl-N2-isobutyl-N4-(3-methylpyridin-2-yl)pyridine-2,4-diamine]	393
CC(C)CN(Cc1ccccc1)c1cc(Nc2ccc(F)c(Cl)c2)cc(-c2ccccc2-c2nnn[nH]2)n1 [Example 169, 6-(2-(1H-tetrazol-5-yl)phenyl)-N2-benzyl-N4-(3-chloro-4-fluorophenyl)-N2-isobutylpyridine-2,4-diamine]	11.1
CC(C)CN(Cc1ccccc1)c1cc(Nc2ccc(F)cc2)cc(-c2ccccc2-c2nnn[nH]2)n1 [Example 170, 6-(2-(1H-tetrazol-5-yl)phenyl)-N2-benzyl-N4-(4-fluorophenyl)-N2-isobutylpyridine-2,4-diamine]	4.9
CC(C)CN(Cc1ccccc1)c1cc(Nc2ccc(Cl)cc2)cc(-c2ccccc2-c2nnn[nH]2)n1 [Example 171, 6-(2-(1H-tetrazol-5-yl)phenyl)-N2-benzyl-N4-(4-chlorophenyl)-N2-isobutylpyridine-2,4-diamine]	1.1
COc1cnc(Nc2cc(-c3ccccc3-c3nnn[nH]3)nc(N(Cc3ccccc3)CC(C)C)c2)nc1 [Example 172, 6-(2-(1H-tetrazol-5-yl)phenyl)-N2-benzyl-N2-isobutyl-N4-(5-methoxypyrimidin-2-yl)pyridine-2,4-diamine]	14.4
CC(C)CN(Cc1ccccc1)c1cc(Nc2ncnc3[nH]ccc23)cc(-c2ccccc2-c2nnn[nH]2)n1 [Example 173, 6-(2-(1H-tetrazol-5-yl)phenyl)-N2-benzyl-N2-isobutyl-N4-(7H-pyrrolo[2,3-d]pyrimidin-4-yl)pyridine-2,4-diamine]	259
CC(C)CN(Cc1ccccc1)c1cc(Nc2ccc(Cl)cc2Cl)cc(-c2ccccc2-c2nnn[nH]2)n1 [Example 174, 6-(2-(1H-tetrazol-5-yl)phenyl)-N2-benzyl-N4-(2,4-dichlorophenyl)-N2-isobutylpyridine-2,4-diamine]	16.5
Cc1cc(F)ccc1Nc1cc(-c2ccccc2-c2nnn[nH]2)nc(N(Cc2ccccc2)CC(C)C)c1 [Example 175, 6-(2-(1H-tetrazol-5-yl)phenyl)-N2-benzyl-N4-(4-fluoro-2-methylphenyl)-N2-isobutylpyridine-2,4-diamine]	54.9
Cc1cc(Nc2cc(-c3ccccc3-c3nnn[nH]3)nc(N(Cc3ccccc3)CC(C)C)c2)ccc1C#N [Example 176, 4-((2-(2-(1H-tetrazol-5-yl)phenyl)-6-(benzyl(isobutyl)amino)pyridin-4-yl)amino)-2-methylbenzonitrile]	10.5
CC(C)CN(Cc1ccccc1)c1cc(Nc2ccccc2Cl)cc(-c2ccccc2-c2nnn[nH]2)n1 [Example 177, 6-(2-(1H-tetrazol-5-yl)phenyl)-N2-benzyl-N4-(2-chlorophenyl)-N2-isobutylpyridine-2,4-diamine]	17.5
